Test results: PMC5760531, “Action Potential Recording and Pro-arrhythmia Risk Analysis in Human Ventricular Trabeculae” (Frontiers in Physiology, 2018)

Assays:
[1] = human free (unbound) effective therapeutic plasma concentration used to calculate multiples; cited from earlier work
[2] = system: human ventricular trabeculae; experiment: Action potential recording and pro-arrhythmic score analysis in human ventricular trabeculae (hVT);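 also: sharp microelectrode action potential recordings at 37°C in Tyrode-perfused trabeculae, 4 cumulative concentrations each applied 31 min, values averaged over last 30 APs, vehicle 0.1% DMSO as control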
[3] = 1Hz, 1.6-FOLD free ETPC (0.006µM)
[4] = 1Hz, 17-FOLD free ETPC (0.006µM)
[5] = 1Hz, 167-FOLD free ETPC (0.006µM)
[6] = 1Hz, 1667-FOLD free ETPC (0.006µM)
[7] = 2Hz, 1.6-FOLD free ETPC (0.006µM)
[8] = 2Hz, 17-FOLD free ETPC (0.006µM)
[9] = 2Hz, 167-FOLD free ETPC (0.006µM)
[10] = 2Hz, 1667-FOLD free ETPC (0.006µM)

## COc1cc2nc(N(C)CCCNC(=O)C3CCCO3)nc(N)c2cc1OC (stereo not shown) [ALFUZOSIN, Alfuzosin]
[1]
  Free ETPC: 0.006 µM
[2]; [3]
  AMAX: 110
  AMAX percentage change compared to vehicle control: 2%
  APD30: 163
  APD30 percentage change compared to vehicle control: 4%
  APD50: 214
  APD50 percentage change compared to vehicle control: 4%
  APD90: 287
  APD90 percentage change compared to vehicle control: 3%
  Alternans: 0.33
  Alternans percentage change compared to vehicle control: -14%
  Beat Escape: 0
  Beat Escape percentage change compared to vehicle control: 0%
  EADs: 0
  EADs percentage change compared to vehicle control: 0%
  ERP: 0.42
  ERP percentage change compared to vehicle control: 0%
  Max Dispersion: 2.40
  Max Dispersion percentage change compared to vehicle control: 28%
  RMP: -88
  RMP percentage change compared to vehicle control: 3%
  Refractoriness Escape: 0
  Refractoriness Escape percentage change compared to vehicle control: 0%
  STV: 0.30
  STV percentage change compared to vehicle control: 9%
  Triangulation: 123
  Triangulation percentage change compared to vehicle control: -1%
[2]; [4]
  AMAX: 110
  AMAX percentage change compared to vehicle control: 1%
  APD30: 159
  APD30 percentage change compared to vehicle control: 2%
  APD50: 209
  APD50 percentage change compared to vehicle control: 2%
  APD90: 284
  APD90 percentage change compared to vehicle control: 1%
  Alternans: 0.34
  Alternans percentage change compared to vehicle control: -13%
  Beat Escape: 0
  Beat Escape percentage change compared to vehicle control: 0%
  EADs: 0
  EADs percentage change compared to vehicle control: 0%
  ERP: 0.44
  ERP percentage change compared to vehicle control: 4%
  Max Dispersion: 2.18
  Max Dispersion percentage change compared to vehicle control: 16%
  RMP: -88
  RMP percentage change compared to vehicle control: 3%
  Refractoriness Escape: 0
  Refractoriness Escape percentage change compared to vehicle control: 0%
  STV: 0.26
  STV percentage change compared to vehicle control: -6%
  Triangulation: 126
  Triangulation percentage change compared to vehicle control: 1%
[2]; [5]
  AMAX: 110
  AMAX percentage change compared to vehicle control: 2%
  APD30: 161
  APD30 percentage change compared to vehicle control: 3%
  APD50: 213
  APD50 percentage change compared to vehicle control: 4%
  APD90: 291
  APD90 percentage change compared to vehicle control: 4%
  Alternans: 0.45
  Alternans percentage change compared to vehicle control: 16%
  Beat Escape: 0
  Beat Escape percentage change compared to vehicle control: 0%
  EADs: 0
  EADs percentage change compared to vehicle control: 0%
  ERP: 0.44
  ERP percentage change compared to vehicle control: 4%
  Max Dispersion: 2.43
  Max Dispersion percentage change compared to vehicle control: 29%
  RMP: -89
  RMP percentage change compared to vehicle control: 4%
  Refractoriness Escape: 0
  Refractoriness Escape percentage change compared to vehicle control: 0%
  STV: 0.29
  STV percentage change compared to vehicle control: 7%
  Triangulation: 130
  Triangulation percentage change compared to vehicle control: 5%
[2]; [6]
  AMAX: 109
  AMAX percentage change compared to vehicle control: 1%
  APD30: 162
  APD30 percentage change compared to vehicle control: 4%
  APD50: 222
  APD50 percentage change compared to vehicle control: 9%
  APD90: 319
  APD90 percentage change compared to vehicle control: 14%
  Alternans: 0.72
  Alternans percentage change compared to vehicle control: 86%
  Beat Escape: 0
  Beat Escape percentage change compared to vehicle control: 0%
  EADs: 0
  EADs percentage change compared to vehicle control: 0%
  ERP: 0.47
  ERP percentage change compared to vehicle control: 12%
  Max Dispersion: 3.05
  Max Dispersion percentage change compared to vehicle control: 63%
  RMP: -88
  RMP percentage change compared to vehicle control: 4%
  Refractoriness Escape: 0
  Refractoriness Escape percentage change compared to vehicle control: 0%
  STV: 0.46
  STV percentage change compared to vehicle control: 75%
  Triangulation: 158
  Triangulation percentage change compared to vehicle control: 28%
[2]; [7]
  AMAX: 109
  AMAX percentage change compared to vehicle control: 1%
  APD30: 120
  APD30 percentage change compared to vehicle control: 2%
  APD50: 163
  APD50 percentage change compared to vehicle control: 3%
  APD90: 234
  APD90 percentage change compared to vehicle control: 2%
  Alternans: 0.92
  Alternans percentage change compared to vehicle control: 6%
  Beat Escape: 0
  Beat Escape percentage change compared to vehicle control: 0%
  EADs: 0
  EADs percentage change compared to vehicle control: 0%
  ERP: 0.45
  ERP percentage change compared to vehicle control: 1%
  Max Dispersion: 3.95
  Max Dispersion percentage change compared to vehicle control: 12%
  RMP: -87
  RMP percentage change compared to vehicle control: 2%
  Refractoriness Escape: 0
  Refractoriness Escape percentage change compared to vehicle control: 0%
  STV: 0.64
  Triangulation: 115
  Triangulation percentage change compared to vehicle control: 1%
[2]; [8]
  AMAX: 110
  AMAX percentage change compared to vehicle control: 2%
  APD30: 116
  APD30 percentage change compared to vehicle control: -1%
  APD50: 160
  APD50 percentage change compared to vehicle control: 1%
  APD90: 233
  APD90 percentage change compared to vehicle control: 1%
  Alternans: 0.99
  Alternans percentage change compared to vehicle control: 14%
  Beat Escape: 0
  Beat Escape percentage change compared to vehicle control: 0%
  EADs: 0
  EADs percentage change compared to vehicle control: 0%
  ERP: 0.47
  ERP percentage change compared to vehicle control: 4%
  Max Dispersion: 3.93
  Max Dispersion percentage change compared to vehicle control: 11%
  RMP: -88
  RMP percentage change compared to vehicle control: 4%
  Refractoriness Escape: 0
  Refractoriness Escape percentage change compared to vehicle control: 0%
  STV: 0.66
  Triangulation: 118
  Triangulation percentage change compared to vehicle control: 3%
[2]; [9]
  AMAX: 110
  AMAX percentage change compared to vehicle control: 2%
  APD30: 115
  APD30 percentage change compared to vehicle control: -1%
  APD50: 161
  APD50 percentage change compared to vehicle control: 2%
  APD90: 238
  APD90 percentage change compared to vehicle control: 3%
  Alternans: 0.83
  Alternans percentage change compared to vehicle control: -4%
  Beat Escape: 0
  Beat Escape percentage change compared to vehicle control: 0%
  EADs: 0
  EADs percentage change compared to vehicle control: 0%
  ERP: 0.48
  ERP percentage change compared to vehicle control: 7%
  Max Dispersion: 2.88
  Max Dispersion percentage change compared to vehicle control: -18%
  RMP: -88
  RMP percentage change compared to vehicle control: 3%
  Refractoriness Escape: 0
  Refractoriness Escape percentage change compared to vehicle control: 0%
  STV: 0.63
  Triangulation: 123
  Triangulation percentage change compared to vehicle control: 8%
[2]; [10]
  AMAX: 108
  AMAX percentage change compared to vehicle control: 0%
  APD30: 115
  APD30 percentage change compared to vehicle control: -1%
  APD50: 165
  APD50 percentage change compared to vehicle control: 5%
  APD90: 258
  APD90 percentage change compared to vehicle control: 12%
  Alternans: 0.78
  Alternans percentage change compared to vehicle control: -10%
  Beat Escape: 0
  Beat Escape percentage change compared to vehicle control: 0%
  EADs: 0
  EADs percentage change compared to vehicle control: 0%
  ERP: 0.50
  ERP percentage change compared to vehicle control: 11%
  Max Dispersion: 2.72
  Max Dispersion percentage change compared to vehicle control: -23%
  RMP: -87
  RMP percentage change compared to vehicle control: 2%
  Refractoriness Escape: 0
  Refractoriness Escape percentage change compared to vehicle control: 0%
  STV: 0.55
  Triangulation: 142
  Triangulation percentage change compared to vehicle control: 26%
